Assay results reported in paper PMC12486440, “Design, synthesis, and in silico studies of new benzofuran–pyrazole hybrids as multi-kinase inhibitors with potential antiproliferative activity” (RSC Advances, 2025).

System: HCT-15

c1ccc(-n2cc(C3CC(c4nc5ccccc5[nH]4)=NN3)c(-c3cc4ccccc4o3)n2)cc1 (centres unmarked) [3d, 3-(Benzofuran-2-yl)-4-(3-(1H-benzo[d]imidazol-2-yl)-4,5-dihydro-1H-pyrazol-5-yl)-1-phenyl-1H-pyrazole]
GI50 (Homo sapiens, HCT-15): 3.18 µM | GI% (single dose 10 μM, colon cancer): 83.02%
